Calls of active or inactive are those of the source. No cut-off for these calls is given here.
Legend:
[1] = (§1) Cytotoxicity against human NCI60 cells assessed as growth inhibition by SRB assay; assay type: functional
Staphylococcus aureus = test: Antibacterial activity against Staphylococcus aureus by Kirby-Bauer disk diffusion assay; assay type: functional
[2] = tested on: Saccharopolyspora erythraea; test: Antibacterial activity against Saccharopolyspora erythraea by Kirby-Bauer disk diffusion assay
CCRF-CEM = test: Cytotoxicity against human CCRF-CEM cells assessed as growth inhibition by SRB assay; assay type: functional
NCI60 = test: as §1; assay type: functional

| SMILES | GI50 [1] [µM] | Activity (Staphylococcus aureus) | Activity [2] | GI50 (CCRF-CEM) [µM] | growth inhibition (GI) (NCI60) | MIC (Staphylococcus aureus) [µg] | MIC [2] [µg] | %max (Staphylococcus aureus) |
| --- | --- | --- | --- | --- | --- | --- | --- | --- |
| C/C=C/C1C=C[C@@H]2C[C@H](CO)CC[C@H]2[C@]1(C)C(=O)C1=C(O)[C@H](CO)N(C)C1=O (some centres undefined) | > 20 | – | – | – | – | – | – | – |
| C/C=C/[C@@H]1C=C[C@@H]2C[C@H](CO)CC[C@H]2[C@]1(C)C(=O)C1=C(O)[C@H](CO)NC1=O | > 20 | inactive | inactive | – | – | – | – | – |
| CN1C(=O)C(C(=O)[C@@]2(C)[C@@H]3CC[C@@H](CO)C[C@H]3C=C[C@H]2/C=C/CO)=C(O)C1CO (mixture of isomers) | > 20 | inactive | inactive | – | – | – | – | – |
| C/C=C/[C@@H]1C=C[C@@H]2C[C@H](C)CC[C@H]2[C@]1(C)/C(O)=C1/C(=O)[C@H](CO)N(C)C1=O | – | – | – | 0.144 | Active | <1.25 | 2.5 | – |
| C/C=C/[C@@H]1C=C[C@@H]2C[C@@](C)(O)CC[C@H]2[C@]1(C)C(=O)C1=C(O)[C@H](CO)N(C)C1=O | > 20 | – | inactive | – | – | – | – | inactive |

Source: ChEMBL document CHEMBL3102823, “Tetramic acid analogues produced by coculture of Saccharopolyspora erythraea with Fusarium pallidoroseum” (2014)
